Results taken from patent US10646489B2, “Compositions and methods for increasing energy metabolism” (NuSirt Sciences, Inc., priority 2012, dated 2020).

Columns and labels:
Type in all cases: cell-based
[1] = test system: C2C12 myotubes; experiment: Fatty acid oxidation (O2 consumption response to palmitate injection) in C2C12 myotubes / muscle cells; conditions: C2C12 myotubes; sildenafil 1 nM (change from baseline) or leucine 0.5 mM alone
Experimental: Fatty acid oxidation was measured as O2 consumption response to palmitate injection and is expressed as % change from pre-injection baseline. […] Data expressed as % change from control value. *p=0.013; **p=0.015. The output of the pathways can be measured using one or more methods, disclosed herein and/or known in the art. […] Mitochondrial biogenesis can be measured using a mitochondrial probe by using fluorescence. AMPK activity can be determined by measuring AMPK phosphorylation via an ELISA assay or by Western blot. Sirt1 activity can be determined by measuring deacetylation of a substrate, which can be detected using a fluorophore. […] Treatment with 0.5 mM leucine corresponds to a circulating level of the same molarity achieved by administering about 1,125 mg of dietary leucine to a human subject. Treatment with 0.25 mM leucine corresponds to a circulating level of the same molarity achieved by administering about 300 mg of dietary leucine to a human subject.

[2] = test system: 3T3-L1 adipocytes; experiment: Fatty acid oxidation in 3T3-L1 adipocytes / adipocytes; conditions: 3T3-L1 adipocytes; leucine 0.5 mM or HMB 5 μM alone; p<0.05
Text: Data expressed as % change from control value.*p<0.05. The output of the pathways can be measured using one or more methods, disclosed herein and/or known in the art. […] Mitochondrial biogenesis can be measured using a mitochondrial probe by using fluorescence. AMPK activity can be determined by measuring AMPK phosphorylation via an ELISA assay or by Western blot. Sirt1 activity can be determined by measuring deacetylation of a substrate, which can be detected using a fluorophore. […] Treatment with 0.5 mM leucine corresponds to a circulating level of the same molarity achieved by administering about 1,125 mg of dietary leucine to a human subject. Treatment with 0.25 mM leucine corresponds to a circulating level of the same molarity achieved by administering about 300 mg of dietary leucine to a human subject.

[3] = test system: 3T3-L1 adipocytes; experiment: Glucose utilization (extracellular acidification response to glucose injection) in 3T3-L1 adipocytes / adipocytes; conditions: 3T3-L1 cells; leucine alone; p<0.05
Experimental: Glucose utilization was measured as extracellular acidification response to glucose injection. *p=0.05. […] Treatment with 0.5 mM leucine corresponds to a circulating level of the same molarity achieved by administering about 1,125 mg of dietary leucine to a human subject. Treatment with 0.25 mM leucine corresponds to a circulating level of the same molarity achieved by administering about 300 mg of dietary leucine to a human subject.

leucine
fatty acid oxidation, agent alone [1]: 73% | fatty acid oxidation, agent alone [2]: 27% | glucose utilization, agent alone [3]: 48.6%
